{
  "source": "paper PMC9410265",
  "about": "“Citrate Regulates the Saccharomyces cerevisiae Mitochondrial GDP/GTP Carrier (Ggc1p) by Triggering Unidirectional Transport of GTP” (Journal of Fungi, 2022)",
  "key": {"[1]": {"target": "T1, Ggc1p (yeast mitochondrial GDP/GTP carrier) (Saccharomyces cerevisiae, UniProt P38988, R156A)", "T1 construct": "gene GGC1; E. coli BL21(DE3) inclusion bodies, sarkosyl-solubilized, reconstituted in liposomes; calculated 33,215 Da with initiator Met", "T1 sequence (P38988 1-300 R156A)": "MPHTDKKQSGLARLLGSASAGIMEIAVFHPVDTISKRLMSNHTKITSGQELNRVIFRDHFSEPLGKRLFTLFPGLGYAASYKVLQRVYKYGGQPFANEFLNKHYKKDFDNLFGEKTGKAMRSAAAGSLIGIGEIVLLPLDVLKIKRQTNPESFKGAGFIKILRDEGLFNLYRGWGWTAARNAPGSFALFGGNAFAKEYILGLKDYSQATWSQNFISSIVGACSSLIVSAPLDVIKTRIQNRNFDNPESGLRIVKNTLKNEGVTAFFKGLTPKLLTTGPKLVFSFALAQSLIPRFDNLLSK", "assay": "radiolabelled GTP uptake into citrate-loaded proteoliposomes, […] s", "format": "biochemical", "settings": "activator; 5 mM internal citrate; 1 μM external [8-3H]GTP; pH 7.0, 25 °C"}, "[2]": {"target": "T2, Ggc1p (yeast mitochondrial GDP/GTP carrier) (Saccharomyces cerevisiae, UniProt P38988)", "T2 construct": "gene GGC1; E. coli BL21(DE3) inclusion bodies, sarkosyl-solubilized, reconstituted in liposomes; calculated 33,215 Da with initiator Met", "T2 sequence (P38988 1-300)": "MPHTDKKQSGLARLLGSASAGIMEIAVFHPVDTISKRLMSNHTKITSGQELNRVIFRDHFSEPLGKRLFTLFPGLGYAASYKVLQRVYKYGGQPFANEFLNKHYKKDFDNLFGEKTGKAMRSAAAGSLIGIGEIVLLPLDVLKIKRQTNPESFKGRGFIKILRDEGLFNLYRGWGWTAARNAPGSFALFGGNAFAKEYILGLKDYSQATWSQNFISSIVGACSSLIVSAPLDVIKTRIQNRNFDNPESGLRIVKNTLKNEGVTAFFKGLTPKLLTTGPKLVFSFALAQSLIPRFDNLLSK", "assay": "radiolabelled GTP uptake into proteoliposomes, activation by internal citrate", "format": "biochemical", "settings": "activator (trans-activation of GTP uniport), not transported; allosteric, site distinct from GTP site; 10 μM external [8-3H]GTP; pH 7.0, 25 °C"}, "[3]": {"target": "T3, Ggc1p (yeast mitochondrial GDP/GTP carrier) (Saccharomyces cerevisiae, UniProt P38988, K154A)", "T3 construct": "gene GGC1; E. coli BL21(DE3) inclusion bodies, sarkosyl-solubilized, reconstituted in liposomes; calculated 33,215 Da with initiator Met", "T3 sequence (P38988 1-300 K154A)": "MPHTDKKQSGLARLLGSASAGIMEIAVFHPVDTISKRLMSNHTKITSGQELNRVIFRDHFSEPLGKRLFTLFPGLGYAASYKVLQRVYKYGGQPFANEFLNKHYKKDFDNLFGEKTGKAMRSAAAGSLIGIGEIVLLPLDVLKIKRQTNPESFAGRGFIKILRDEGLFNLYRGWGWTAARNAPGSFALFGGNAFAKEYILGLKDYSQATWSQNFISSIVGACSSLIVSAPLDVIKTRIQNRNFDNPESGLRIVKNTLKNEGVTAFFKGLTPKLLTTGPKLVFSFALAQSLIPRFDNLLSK", "assay": "radiolabelled GTP uptake into citrate-loaded proteoliposomes, […] s", "format": "biochemical", "settings": "activator; 5 mM internal citrate; 1 μM external [8-3H]GTP; pH 7.0, 25 °C"}, "[4]": {"target": "T2, Ggc1p (yeast mitochondrial GDP/GTP carrier)", "assay": "[[…]-3H]GTP uptake into effector-loaded proteoliposomes", "format": "biochemical", "settings": "activator of GTP uniport; 5 mM internal compound; 1 μM external [8-3H]GTP; pH 7.0, 25 °C"}, "[5]": {"target": "T2, Ggc1p (yeast mitochondrial GDP/GTP carrier)", "assay": "inhibition of [[…]-3H]GTP uptake into proteoliposomes", "format": "biochemical", "settings": "GTP/GTP exchange (5 mM internal GTP) and citrate-induced uptake (5 mM internal citrate); 1 μM [8-3H]GTP; pH 7.0, 25 °C"}, "[6]": {"target": "T2, Ggc1p (yeast mitochondrial GDP/GTP carrier)", "assay": "inhibition of [[…]-3H]GTP uptake into proteoliposomes", "format": "biochemical", "settings": "citrate-induced GTP uptake (5 mM internal citrate); 1 μM [8-3H]GTP; pH 7.0, 25 °C"}, "purified protein": {"substrate": "Nc1nc2c(ncn2[C@@H]2O[C@H](COP(=O)(O)OP(=O)(O)OP(=O)(O)O)[C@@H](O)[C@H]2O)c(=O)[nH]1", "assay": "purified protein", "format": "biochemical, Saccharomyces cerevisiae", "settings": "citrate-induced GTP uniport, internal citrate 0.15-0.6 mM, external 0.25-1 μM [8-3H]GTP, pH 7.0, 25 °C, labelled compound"}},
  "data": [
    {"molecule": "O=C(O)CC(O)(CC(=O)O)C(=O)O", "note": "[citrate]", "values": [
      {"measurement": "% of wild-type uptake", "setting": "[1]", "result": "CIGU in K154A and R156A mutants were markedly decreased with respect to that of wild-type"},
      {"measurement": "EC50", "setting": "[2]", "result": 510, "unit": "µM"},
      {"measurement": "% of wild-type uptake", "setting": "[3]", "result": "CIGU in K154A and R156A mutants were markedly decreased with respect to that of wild-type"}
    ]},
    {"molecule": "O=C(O)C[C@H](C(=O)O)[C@@H](O)C(=O)O", "note": "[isocitrate]", "values": [
      {"measurement": "[8-3H]GTP uptake into effector-loaded proteoliposomes", "setting": "[4]", "result": "GTP uptake was also observed with proteoliposomes containing citrate, isocitrate, cis-aconitate"}
    ]},
    {"molecule": "O=C(O)/C=C(/CC(=O)O)C(=O)O", "note": "[cis-aconitate]", "values": [
      {"measurement": "[8-3H]GTP uptake into effector-loaded proteoliposomes", "setting": "[4]", "result": "GTP uptake was also observed with proteoliposomes containing citrate, isocitrate, cis-aconitate"}
    ]},
    {"molecule": "Cc1cc(C2(c3cc(C)c(O)c(Br)c3)OS(=O)(=O)c3ccccc32)cc(Br)c1O", "note": "[bromocresol purple]", "values": [
      {"measurement": "% inhibition at 0.3 mM", "setting": "[5]", "result": "tannic acid and bromocresol purple (inhibitors of the mitochondrial glutamate carriers)"}
    ]},
    {"molecule": "CO[C@H](C/C=C\\C=C\\CC/C=C/C[C@H](C)/C=C/C(=C\\C(=O)O)CC(=O)O)/C(C)=C\\C=C(/C)C(=O)O", "note": "[bongkrekic acid]", "values": [
      {"measurement": "% inhibition at 0.1 mM", "setting": "[6]", "result": "CIGU was partially inhibited by p-hydroxymercuribenzoate, carboxyatractyloside and bongkrekate"}
    ]},
    {"molecule": "Ggc1p (yeast mitochondrial GDP/GTP carrier) (Saccharomyces cerevisiae S288C) (protein, E. coli BL21(DE3) inclusion bodies, sarkosyl-solubilized, reconstituted in liposomes; calculated 33,215 Da with initiator Met) MPHTDKKQSGLARLLGSASAGIMEIAVFHPVDTISKRLMSNHTKITSGQELNRVIFRDHFSEPLGKRLFTLFPGLGYAASYKVLQRVYKYGGQPFANEFLNKHYKKDFDNLFGEKTGKAMRSAAAGSLIGIGEIVLLPLDVLKIKRQTNPESFKGRGFIKILRDEGLFNLYRGWGWTAARNAPGSFALFGGNAFAKEYILGLKDYSQATWSQNFISSIVGACSSLIVSAPLDVIKTRIQNRNFDNPESGLRIVKNTLKNEGVTAFFKGLTPKLLTTGPKLVFSFALAQSLIPRFDNLLSK", "values": [
      {"measurement": "Km", "setting": "purified protein", "result": 0.72, "unit": "µM"}
    ]}
  ]
}
